Laboratory results: US6335459B1, “Aryl carboxylic acid and aryl tetrazole derivatives as IP receptor modulators” (Syntex (U.S.A.) LLC, priority 1998, dated 2002)
Where a name gives a salt, the structure may show the parent alone.

First: O=C(O)COc1cccc(/C=C\COC(=O)N(c2ccccc2)c2ccccc2)c1 (as salt: salt) [Example 9, Cis-[3-(3-Diphenylcarbamoyloxypropenyl)phenoxy]acetic acid]
Second: O=C(O)COc1cccc(/C=C/COC(=O)N(c2ccccc2)c2ccccc2)c1 [Example 6, Trans-[3-(3-Diphenylcarbamoyloxypropenyl)phenoxy}acetic acid]
The melting point of the first is higher: 132.5 to 135 °C for the first, 112.4 to 113.7 °C for the second.

First: O=C(O)COc1cccc(/C=C\CCOC(=O)N(c2ccccc2)c2ccccc2)c1 (as salt: salt) [Example 10A, cis-[3-(4-diphenylcarbamoyloxybut-1-enyl)phenoxy]acetic acid tert-butylamine salt]
Second: CC(C)(C)N.O=C(O)COc1cccc(/C=C\CCCCOC(=O)N(c2ccccc2)c2ccccc2)c1 [Example 10A, cis-[3-(6-diphenylcarbamoyloxyhex-1-enyl)phenoxy]acetic acid tert-butylamine salt]
The melting point of the first is higher: 112.5 to 112.8 °C for the first, 87 to 88.5 °C for the second.

Compared with O=C(O)COc1cccc(/C=C\COC(=O)N(Cc2ccccc2)c2ccccc2)c1 (as salt: salt) [Example 10B, cis-{3-[3-(benzylphenylcarbamoyloxypropenyl)phenoxy]acetic acid tert-butylamine salt], O=C(O)CCCCOc1cccc(/C=C\COC(=O)N(c2ccccc2)c2ccccc2)c1 [Example 10A, cis-5-[3-(3-diphenylcarbamoyloxypropenyl)phenoxy]pentanoic acid] is lower in melting point: 107 to 108.5 °C for the first, 56.3 to 56.7 °C for the second.

Compared with O=C(O)CCc1cccc(/C=C\COC(=O)N(c2ccccc2)c2ccccc2)c1 (as salt: salt) [Example 13, cis-3-[3-(3-Diphenylcarbamoyloxypropenyl)phenyl]propionic acid], CC(C)(C)N.O=C(O)c1cccc(/C=C\COC(=O)N(c2ccccc2)c2ccccc2)c1 [Example 14B, cis-3-(3-diphenylcarbamoyloxypropenyl)benzoic acid tert-butylamine salt] is higher in melting point: 131.8 to 132.4 °C for the first, 180.5 to 184 °C for the second.

First: O=C(O)COc1cccc(COC(=O)N(c2ccccc2)c2ccccc2)c1Cl [Example 1, {2-Chloro-3-[(diphenylcarbamoyloxy)methyl]phenoxy}acetic acid]
Second: Cc1c(COC(=O)N(c2ccccc2)c2ccccc2)cccc1OCC(=O)O [Example 2, {3-[(Diphenylcarbamoyloxy)methyl]-2-methylphenoxy}acetic acid]
The melting point of the first is higher: 182.2 to 182.9 °C for the first, 180.1 to 180.7 °C for the second.

First: O=C(O)COc1cccc(COC(=O)N(c2ccccc2)c2ccccc2)c1 [Example 4, {3-[(Diphenylcarbamoyloxy)methyl]phenoxy}acetic acid]
Second: O=C(O)Cc1cccc(CCOC(=O)N(c2ccccc2)c2ccccc2)c1 [Example 12, [3-(2-diphenylcarbamoyloxyethyl)phenyl]acetic acid]
The melting point of the first is higher: 142.2 to 143.8 °C for the first, 123 to 123.3 °C for the second.

First: Cc1c(/C=C\COC(=O)N(c2ccccc2)c2ccccc2)cccc1OCC(=O)O [Example 8, Cis-[3-(3-Diphenylcarbamoyloxypropenyl)-2-methylphenoxy]acetic acid]
Second: CC(C)(C)N.O=C(O)CCCOc1cccc(/C=C\COC(=O)N(c2ccccc2)c2ccccc2)c1 [Example 10A, cis-4-[3-(3-diphenylcarbamoyloxypropenyl)phenoxy]butyric acid tert-butylamine salt]
The melting point of the first is higher: 133.4 to 135.5 °C for the first, 102 to 106 °C for the second.

First: Cc1c(CCCOC(=O)N(c2ccccc2)c2ccccc2)cccc1CC(=O)O [Example 12, [3-(3-diphenylcarbamoyloxypropyl)-2-methylphenyl]acetic acid]
Second: O=C(O)Cc1cccc(CCCCOC(=O)N(c2ccccc2)c2ccccc2)c1 [Example 12, [3-(4-diphenylcarbamoyloxybutyl)phenyl]acetic acid]
The melting point of the first is higher: 128.7 to 129.2 °C for the first, 117.8 to 119.6 °C for the second.

Compared with O=C(O)Cc1cccc(CCCCCOC(=O)N(c2ccccc2)c2ccccc2)c1 [Example 12, [3-(5-diphenylcarbamoyloxypentyl)phenyl]acetic acid], O=C(O)Cc1cccc(CCCCCCOC(=O)N(c2ccccc2)c2ccccc2)c1 [Example 12, [3-(6-diphenylcarbamoyloxyhexyl)phenyl]acetic acid] is lower in melting point: 128.1 to 128.7 °C for the first, 99.8 to 101.7 °C for the second.

First: CC(C)(C)N.O=C(O)Cc1cccc(/C=C\CCOC(=O)N(c2ccccc2)c2ccccc2)c1 [Example 14A, cis-[3-(4-diphenylcarbamoyloxybut-1-enyl)phenyl]acetic acid tert-butylamine salt]
Second: CC(C)(C)N.O=C(O)c1cccc(/C=C\CCOC(=O)N(c2ccccc2)c2ccccc2)c1 [Example 14B, cis-3-(4-diphenylcarbamoyloxybut-1-enyl)benzoic acid tert-butylamine salt]
The melting point of the first is lower: 151.2 to 153.1 °C for the first, 172.8 to 176.8 °C for the second.

Work on CC(C)(C)N.CC(CCc1cccc(CC(=O)O)c1)OC(=O)N(c1ccccc1)c1ccccc1 (stereo not drawn) [Example 14C, [3-(3-diphenylcarbamoyloxybutyl)phenyl]acetic acid tert-butylamine salt] yielded a melting point of 112.3 to 113.1 °C.
